Publication PMC4604124, “In Vitro Characterization of the Pharmacological Properties of the Anti-Cancer Chelator, Bp4eT, and Its Phase I Metabolites” (PLoS ONE, 2015)
“And” between values parts separate entries of the source, which are not always exact repeats. Equal values may be shown once.

Experiments:
[1] = tested on: A549 human lung adenocarcinoma cells; test: MTT cytotoxicity assay, A549 cells; format: cell-based; details: for MTT, relative to control (0 = 100) / IC50: 2 000 b/j, sheet E-Bp4eS; for IC50: MTT
Description: For cytotoxicity experiments, cancer cells were seeded at a density of 5,000 (MCF-7), 10,000 (HL-60) or 2,000 cells/well (HCT116 and A549) in 96-well plates (TPP) for 24 h/37°C prior to the addition of examined agents. The non-cancerous cells, 3T3 and H9c2 cells, were cultured for 24 h/37°C in 96-well plates at a density of 10,000 cells/well, the medium was then changed to serum- and pyruvate-free DMEM (Sigma-Aldrich) and incubated with the cells for another 24 h/37°C. The cytotoxic effects of Bp4eT and its metabolites were studied at different concentrations after a 72 h/37°C incubation. In order to aid the dissolution of the lipophilic ligands, 0.1% dimethyl sulfoxide (v/v) (DMSO; Sigma-Aldrich) was present in the culture medium of all groups. At this concentration, DMSO had no effect on cellular proliferation or viability.
The viability of cells were determined using an MTT assay (Sigma-Aldrich) according to previously established methods. The optical density of soluble MTT was measured at λ = 570 nm, subtracting the λ = 690 nm background using a Tecan Infinite 200M plate reader (Tecan Group, Männedorf, Switzerland). The viability or proliferation of experimental groups was expressed as a percentage of the untreated controls (100%).
SigmaStat for Windows 3.5 (Systat Software, San Jose, CA, USA) statistical software package was utilized to analyze results. The data are expressed as the mean ± SD of a given number of experiments. Statistical significance was determined using a one-way ANOVA with a Bonferroni post-hoc test or Student’s t-test. The results were considered to be statistically significant when p < 0.05. The IC50 values were calculated using CalcuSyn 2.0 software (Biosoft, Cambridge, UK). Cell cycle analysis was evaluated using MultiCycle AV Software (Phoenix Flow Systems, San Diego, CA, USA).

[2] = Ascorbate oxidation assay (redox activity of iron complexes); format: biochemical;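 on %Fe 30min (ascorbate oxidation, Fe 100%), průměr: IBE 3 means excess free chelator over iron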;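 on %Fe 30min (ascorbate oxidation, Fe 100%): IBE 3 means excess free chelator over iron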;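 on %Fe 30min (ascorbate oxidation, Fe = 100%), průměr (mean): IBE 1 means iron-binding equivalents giving fully coordinated iron-chelator complexes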;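 on %Fe 30min (ascorbate oxidation, Fe = 100%), single replicates: IBE 1 means iron-binding equivalents giving fully coordinated iron-chelator complexes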;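 on %Fe 30min: ascorbate oxidation as % of the Fe control (Fe 100%): IBE 0.1 means iron-binding equivalents with iron in excess over chelator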;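 on Change of absorbance, odečet 0 (time 0 subtracted), čas 10, průměr: IBE 3 means excess free chelator over 10 µM FeCl3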;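 on Change of absorbance, odečet 0 (time 0 subtracted), čas 10: IBE 3 means excess free chelator over 10 µM FeCl3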;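 on Change of absorbance, odečet 0 (time 0 subtracted), čas 20, průměr: 100 µM ascorbate with 10 µM FeCl3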;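 on Change of absorbance, odečet 0 (time 0 subtracted), čas 20: 100 µM ascorbate with 10 µM FeCl3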;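 on Change of absorbance, odečet 0 (time 0 subtracted), čas 30, průměr: 100 µM ascorbate with 10 µM FeCl3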;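 on Change of absorbance, odečet 0 (time 0 subtracted), čas 30: 100 µM ascorbate with 10 µM FeCl3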;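 on odečet 0 (reading minus time 0 reading) at čas 20, single replicates: IBE 1 means fully coordinated iron chelator complexes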;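 on odečet 0 (reading minus time 0 reading) at čas 30, průměr (mean): IBE 1 means fully coordinated iron chelator complexes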;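 on odečet 0 (reading minus time 0 reading) at čas 30, single replicates: IBE 1 means fully coordinated iron chelator complexes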;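 on raw reading at čas 20 (time 20), průměr (mean): IBE 1 means fully coordinated iron chelator complexes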;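 on raw reading at čas 20 (time 20), single replicates: IBE 1 means fully coordinated iron chelator complexes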;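 on raw reading at čas 30 (time 30), průměr (mean): IBE 1 means fully coordinated iron chelator complexes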;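 on raw reading at čas 30 (time 30), single replicates: IBE 1 means fully coordinated iron chelator complexes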
[3] = sheet IBE 1, time 10, replicates
[4] = sheet IBE 1, time 20, replicates
[5] = sheet IBE 1, time 30, replicates

With `CCNC(=O)NN=C(c1ccccc1)c1ccccn1` [E-Bp4eS, 2-benzoylpyridine 4-ethylsemicarbazone] the “MTT, relative to control (0 = 100)” value ([1]; A549, 100 μM, single experiment (date)) was 74.3256 and 77.7533 and 70.4536 and 74.7606 and 67.6889, the “MTT, relative to control (0 = 100)” value ([1]; A549, 300 μM, průměr (mean)) was 38.58 and the “MTT, relative to control (0 = 100)” value ([1]; A549, 300 μM, single experiment (date)) was 29.8381 and 26.5697 and 49.6192 and 42.8896 and 44.0078. The “MTT, relative to control (0 = 100)” value ([1]; A549, 1000 μM, průměr (mean)) was 20.68, the “MTT, relative to control (0 = 100)” value ([1]; A549, 1000 μM, single experiment (date)) was 19.2379 and 16.653 and 18.6303 and 21.7843 and 27.0728 and the IC50 ([1]; A549, single experiment (date)) was 234 µM and 239 µM and 259 µM and 291 µM. For the same compound, the “Therapeutic index, IC50 non-cancerous cells / IC50 neoplastic cells” value ([1]; H9c2/A549) was 3.6, the IC50 ([1]; Homo sapiens, A549, A549, single experiment (date)) was 217 µM and the “%Fe 30min: ascorbate oxidation as % of the Fe control (Fe 100%)” value ([2]; IBE 0.1, 30 min, mean (průměr)) was 110.6%. The “Change of absorbance after subtraction of time 0 (odečet 0)” value (“Change of absorbance … (odečet 0)” for short) ([2]; IBE 0.1, time 10, mean (průměr)) was -0.03606, the “Change of absorbance … (odečet 0)” value ([2]; IBE 0.1, time 20, mean (průměr)) was -0.07143 and the “Change of absorbance … (odečet 0)” value ([2]; IBE 0.1, time 30, mean (průměr)) was -0.1048. For the same compound, the “Absorbance (ascorbate, λ = 265 nm)” value ([2]; IBE 0.1, čas 0 (time 0), mean (průměr)) was 0.8403, the “Absorbance (ascorbate, λ = 265 nm)” value ([2]; IBE 0.1, čas 10 (time 10), mean (průměr)) was 0.8042 and the “Absorbance (ascorbate, λ = 265 nm)” value ([2]; IBE 0.1, čas 20 (time 20), mean (průměr)) was 0.7689. For the same compound, the “Absorbance (ascorbate, λ = 265 nm)” value ([2]; IBE 0.1, čas 30 (time 30), mean (průměr)) was 0.7355, the “Absorbance (ascorbate, λ = 265 nm)” value ([2]; IBE 0.1, čas 30 (time 30), single wells) was 0.7395 and 0.7451 and 0.7441 and 0.7317 and 0.7361 and 0.735 and 0.7279 and 0.7282 and the “%Fe 30min (ascorbate oxidation, Fe = 100%), průměr (mean)” value ([2]; sheet IBE 1, 30min, Fe 100%, mean) was 115.7%. The “%Fe 30min (ascorbate oxidation, Fe = 100%), single replicates” value ([2]; sheet IBE 1, 30min, Fe 100%, replicates) was 118.6% and 122% and 108.4% and 125.1% and 134.4% and 115.2% and 110.6% and 115.1% and 91.71%, the “raw reading at čas 0 (time 0), průměr (mean)” value ([2]; sheet IBE 1, time 0, mean of 9 readings) was 0.822 and the “raw reading at čas 0 (time 0), single replicates” value ([2]; sheet IBE 1, time 0, replicates of 2014-03-24 (two runs) and 2014-03-25) was 0.8574 and 0.8322 and 0.8144 and 0.8238 and 0.8106 and 0.8047 and 0.8172 and 0.7979 and 0.8393. The “odečet 0 (reading minus time 0 reading) at čas 10, průměr (mean)” value ([2]; sheet IBE 1, time 10, mean) was -0.03765, the “raw reading at čas 10 (time 10), průměr (mean)” value ([2]; sheet IBE 1, time 10, mean of 9 readings) was 0.7843 and the “odečet 0 (reading minus time 0 reading) at čas 10, single replicates” value [2, 3] was -0.03642 and -0.03472 and -0.03462 and -0.04217 and -0.04047 and -0.03637 and -0.03597 and -0.05027 and -0.02787. For the same compound, the “raw reading at čas 10 (time 10), single replicates” value [2, 3] was 0.778 and 0.7891 and 0.776 and 0.7626 and 0.7768 and 0.7616 and 0.8033 and 0.8071 and 0.8043, the “odečet 0 (reading minus time 0 reading) at čas 20, průměr (mean)” value ([2]; sheet IBE 1, time 20, mean) was -0.07141 and the “raw reading at čas 20 (time 20), průměr (mean)” value ([2]; sheet IBE 1, time 20, mean of 9 readings) was 0.7506. For the same compound, the “odečet 0 (reading minus time 0 reading) at čas 20, single replicates” value [2, 4] was -0.07064 and -0.07124 and -0.06354 and -0.07877 and -0.08537 and -0.07037 and -0.07092 and -0.07622 and -0.05562, the “raw reading at čas 20 (time 20), single replicates” value [2, 4] was 0.7438 and 0.7526 and 0.7471 and 0.726 and 0.7319 and 0.7276 and 0.7684 and 0.7812 and 0.7766 and the “odečet 0 (reading minus time 0 reading) at čas 30, průměr (mean)” value ([2]; sheet IBE 1, time 30, mean) was -0.1028. The “raw reading at čas 30 (time 30), průměr (mean)” value ([2]; sheet IBE 1, time 30, mean of 9 readings) was 0.7192, the “odečet 0 (reading minus time 0 reading) at čas 30, single replicates” value [2, 5] was -0.1024 and -0.1054 and -0.09363 and -0.1081 and -0.1161 and -0.09952 and -0.1043 and -0.1086 and -0.08655 and the “raw reading at čas 30 (time 30), single replicates” value [2, 5] was 0.712 and 0.7184 and 0.717 and 0.6966 and 0.7011 and 0.6984 and 0.735 and 0.7488 and 0.7457. The “%Fe 30min (ascorbate oxidation, Fe 100%), průměr” value ([2]; sheet IBE 3, 30min, Fe alone = 100%, mean (průměr) of the 9 replicates) was 117.9%, the “%Fe 30min (ascorbate oxidation, Fe 100%)” value ([2]; sheet IBE 3, 30min, Fe alone = 100%, single replicates) was 124.2% and 115.8% and 108.1% and 126.9% and 132.9% and 126% and 114.7% and 109.6% and 103.1% and the “Change of absorbance, odečet 0 (time 0 subtracted), čas 10, průměr” value ([2]; sheet IBE 3, time 10 minus time 0, mean (průměr)) was -0.04086. The “Change of absorbance, odečet 0 (time 0 subtracted), čas 10” value ([2]; sheet IBE 3, time 10 minus time 0, single replicates) was -0.04474 and -0.03234 and -0.03864 and -0.04417 and -0.05097 and -0.04457 and -0.03984 and -0.03894 and -0.03354, the “Change of absorbance, odečet 0 (time 0 subtracted), čas 20, průměr” value ([2]; sheet IBE 3, time 20 minus time 0, mean (průměr)) was -0.076 and the “Change of absorbance, odečet 0 (time 0 subtracted), čas 20” value ([2]; sheet IBE 3, time 20 minus time 0, single replicates) was -0.0807 and -0.0703 and -0.071 and -0.08341 and -0.08461 and -0.08331 and -0.07425 and -0.07045 and -0.06595. The “Change of absorbance, odečet 0 (time 0 subtracted), čas 30, průměr” value ([2]; sheet IBE 3, time 30 minus time 0, mean (průměr)) was -0.109 and the “Change of absorbance, odečet 0 (time 0 subtracted), čas 30” value ([2]; sheet IBE 3, time 30 minus time 0, single replicates) was -0.1153 and -0.1075 and -0.1003 (2×) and -0.1178 and -0.1233 and -0.1169 and -0.105 and -0.09439.
